In patent US20230027295A1, “FXIA INHIBITORS AND PREPARATION METHOD THEREFOR AND PHARMACEUTICAL USE THEREOF” (Shenzhen Salubris Pharmaceuticals Co., Ltd., priority 2019, published 2023):

Key:
Rat pharmacokinetics = format: in vivo, SD rats; design: AUC: concentration or dose not given beside the values; conditions: for AUC / Cmax / Tmax / clearance / half-life / Vd: male, SD, plasma; for Vd: read-out: Vss
Description: (§1) Example 53: Investigation of the Pharmacokinetic Characteristics of the Compounds of the Present Invention
(§2) SD rats: male, 180-250 g, purchased from Guangdong Medical Laboratory Animal Center. Cynomolgus monkey: male, 4-6 kg, purchased from Guangzhou Chunsheng Biological Research Institute Co., Ltd. Beagle dog: male, 8-12 kg, developed in Kanglong Chemical (Ningbo) New Drug Technology Co., Ltd.
(§3) Reagents: DMSO (dimethyl sulfoxide), PEG-400 (polyethylene glycol 400), normal brine, heparin, acetonitrile, formic acid, and propranolol (internal standard) are commercially available.
(§4) Instrumentation: Thermo Fisher Scientific LC-MS (U300 UPLC, TSQ […] ULTRA triple quadrupole mass spectrometer).
(§5) The compound was weighed and dissolved in DMSO-PEG-400-physiological brine (5:60:35, v/v/v) system. After the rats/monkeys were administered intravenously or by gavage, 200 μL of venous blood was collected at 5 min (not collected when administered by gavage), 15 min, 30 min, 1 h, 2 h, 4 h, 6 h, 8 h, and 24 h in heparinized EP tubes, centrifuged at 12000 rpm for 2 min, and the plasma was frozen at −80° C. for testing. A certain amount of the test substance was precisely weighed and dissolved in DMSO to 1 mg/mL, which was used as a stock solution. An appropriate amount of compound stock solution was accurately pipetted and diluted with acetonitrile to prepare a standard series of solutions. 20 μL of each of the above standard series solutions were accurately pipetted, added with 180 μL of blank plasma, vortexed and mixed to prepare plasma samples equivalent to plasma concentrations of 1, 3, 10, 30, 100, 300, 1000, 3000 and 5000 ng/mL. Two-sample analysis was performed for each concentration to establish a standard curve. 20 μL of plasma was taken out, added with 200 μL of internal standard propranolol (5 ng/mL) in acetonitrile, vortexed and mixed. It was centrifuged at 4000 rpm for 5 min, and the supernatant was collected for LC-MS analysis. LC-MS detection conditions were as follows:
(§6) Chromatographic column: Thermo Scientific […] GOLD C-18 UPLC column, 100*2.1 mm, 1.9 μm.
(§7) Mobile phase: water (0.1% formic acid)-acetonitrile for gradient elution according to the table below.
(§8) After blood drug concentrations being detected by LC-MS, WinNonlin 6.1 software was used to calculate pharmacokinetic parameters by non-compartmental model method.

human plasma = assay: Anticoagulant effect on human plasma in vitro (APTT determination); format: biochemical; conditions: for aPTT EC1.5×: concentration giving APTT of 1.5× blank control; for aPTT EC2×: concentration giving APTT of 2× blank control
Description: Example 51: Determination of the Anticoagulant Effect of the Compounds of the Present Invention on Human Plasma In Vitro
Plasma: Human blood was collected in a vacuum blood collection tube containing 3.2% sodium citrate (volume ratio 1:9), centrifuged at 3000 rpm for 10 min at room temperature, and the plasma was collected, divided into EP tubes, and stored at −80° C.
Reagents: APTT assay kit (Activated partial thromboplastin time assay kit, mindray), calcium chloride solution.
Instrument: coagulation meter (mindray, C2000-A)
The frozen human plasma in aliquots was thawed at room temperature and mixed well. 10 mM test compound dissolved in 100% DMSO was diluted with 100% DMSO to 1500, 750, 375, 187.5, 93.75, 46.88, 23.44, 11.72 μM. 98 μL of human plasma was added to a 1.5 mL EP tube, then 2 μL of compounds of different concentrations were added, and 2 μL of 100% DMSO was added for the blank group. They were incubated under a water bath at 37° C. for 10 min, and the samples were placed in the corresponding position of the coagulation analyzer to conduct APTT determination of the compounds.
Curve fitting was performed with GraphPad Prism software, and EC1.5× and EC2× values were calculated respectively, i.e., the concentrations of the compounds corresponding to the APTT of 1.5× and 2× blank control group.

Human Factor XIa = Human Factor XIa (Homo sapiens, UniProt P03951); assay: Inhibition of human coagulation factor XIa by absorptiometry (substrate S-2366); format: biochemical; conditions: 37° C., 20 min incubation, absorbance 405 nm; read-out: hFXIa IC50
Description: Example 50: Detection of the Biological Activity of the Compounds of the Present Invention on the Inhibition of Human Coagulation Factor XIa by Absorptiometry
Buffer: 145 mM NaCl, 5 mM KCl, 1 mg/mL PEG 8000, 30 mM HEPES, pH 7.4
10 mM test compound dissolved in 100% DMSO was diluted with 100% DMSO to […]; 98 μL of FXIa enzyme solution (77.7 ng/mL) was added to each well of a 96-well plate, and 98 μL of buffer was added to the blank wells. 2 μL of compounds of different concentrations were added, and the blank and control wells were added with DMSO instead. They were mixed with a shaker, and incubated at 37° C. for 20 minutes.
Finally, 100 μL of 800 μM substrate was added to each well, and its absorbance was measured at 405 nm.

[1] = Cynomolgus monkey pharmacokinetics; format: in vivo; design: AUC: concentration or dose not given beside the values
Description: as §1, §2, §3, §4, §5, §6, §7, §8

Chain of Human Factor XIa (P03951 388-625 limits assumed): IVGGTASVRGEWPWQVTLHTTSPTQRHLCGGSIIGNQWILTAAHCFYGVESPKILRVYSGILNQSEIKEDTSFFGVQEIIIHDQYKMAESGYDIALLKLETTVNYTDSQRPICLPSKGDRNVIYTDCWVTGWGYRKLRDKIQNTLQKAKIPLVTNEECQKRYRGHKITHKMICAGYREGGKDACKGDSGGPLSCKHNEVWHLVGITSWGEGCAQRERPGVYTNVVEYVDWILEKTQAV
Chain of Human Factor XIa (P03951 19-387 partner limits assumed): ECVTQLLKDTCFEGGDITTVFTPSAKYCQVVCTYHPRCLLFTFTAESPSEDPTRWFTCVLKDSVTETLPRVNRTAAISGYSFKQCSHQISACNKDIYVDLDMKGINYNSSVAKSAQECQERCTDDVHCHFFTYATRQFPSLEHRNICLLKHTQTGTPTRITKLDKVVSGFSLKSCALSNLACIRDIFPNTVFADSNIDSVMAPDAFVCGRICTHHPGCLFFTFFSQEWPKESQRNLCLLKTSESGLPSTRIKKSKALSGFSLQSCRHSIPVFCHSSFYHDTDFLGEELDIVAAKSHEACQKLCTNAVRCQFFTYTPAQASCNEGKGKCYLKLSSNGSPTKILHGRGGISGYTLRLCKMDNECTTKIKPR

Structure (SMILES)	F (Rat pharmacokinetics; ig)	AUC (Rat pharmacokinetics; iv)	Cmax (Rat pharmacokinetics; iv)	Tmax (Rat pharmacokinetics; iv)	clearance (Rat pharmacokinetics; iv)	half-life (Rat pharmacokinetics; iv)	Vd (Rat pharmacokinetics; iv)	Cmax (Rat pharmacokinetics; po, ig)	Tmax (Rat pharmacokinetics; po, ig)	IC50 (Human Factor XIa)	AUC (Rat pharmacokinetics; po, ig)	half-life (Rat pharmacokinetics; po, ig)	aPTT EC1.5× (human plasma)	aPTT EC2× (human plasma)	further results
COc1nn([C@@H](Cc2ccccc2)C(=O)Nc2ccc3[nH]c(C(=O)O)cc3c2)c(=O)cc1-c1cc(Cl)ccc1C(C)=O [Example 15, (S)-5-(2-(4-(2-acetyl-5-chlorophenyl)-3-methoxy-6-oxopyridazin-1(6H)-yl)-3-phenylpropanamido)-1H-indol-2-formic acid]	0.1%	599 ng·h/mL	1840 ng/mL	4.98 min	29.1 mL/min/kg	28 min	0.471 L/kg	3 ng/mL	30 min	1.52 nM			0.531 µM	1.749 µM	
CCOc1nn([C@@H](Cc2ccccc2)C(=O)Nc2ccc(C(=O)O)cc2)c(=O)cc1-c1cc(Cl)ccc1C(C)=O [Example 16, (S)-4-(2-(4-(2-acetyl-5-chlorophenyl)-3-ethoxy-6-oxopyridazin-1(6H)-yl)-3-phenylpropanamido)benzoic acid]	8.1%	1090 ng·h/mL	2530 ng/mL	4.98 min	16.6 mL/min/kg	40.6 min	0.444 L/kg	160 ng/mL	22.5 min	13.2 nM	481 ng·h/mL	81 min	1.005 µM	4.768 µM	
COCCOc1nn([C@@H](Cc2ccccc2)C(=O)Nc2ccc(C(=O)O)cc2)c(=O)cc1-c1cc(Cl)ccc1C(C)=O [Example 21, (S)-4-(2-(4-(2-acetyl-5-chlorophenyl)-3-(2-methoxyethoxy)-6-oxopyridazin-1(6H)-yl)-3-phenylpropanamido)benzoic acid]	14.9%	743 ng·h/mL	1600 ng/mL	5.99 min	25.3 mL/min/kg	29.5 min	0.277 L/kg	166 ng/mL	90 min	21.9 nM	608 ng·h/mL	139 min	0.777 µM	3.848 µM	F ([1]; ig): 6.3%; AUC ([1]; male, plasma, iv): 455 ng·h/mL; Cmax ([1]; male, plasma, iv): 1010 ng/mL; Tmax ([1]; male, plasma, iv): 4.98 min; clearance ([1]; male, plasma, iv): 18.3 mL/min/kg; half-life ([1]; male, plasma, iv): 76.2 min; Vd ([1]; male, plasma, iv, read-out: Vss): 0.699 L/kg; AUC ([1]; male, plasma, po, ig): 357 ng·h/mL; Cmax ([1]; male, plasma, po, ig): 27.2 ng/mL; Tmax ([1]; male, plasma, po, ig): 90 min; half-life ([1]; male, plasma, po, ig): 684 min
CC(=O)c1ccc(Cl)cc1-c1cc(=O)n([C@@H](Cc2ccccc2)C(=O)Nc2ccc(C(=O)O)cc2)nc1OC1COC1 [Example 24, (S)-4-(2-(4-(2-acetyl-5-chlorophenyl)-6-oxo-3-(oxetan-3-yloxy)-pyridazine-1(6H)-yl)-3-phenylpropanamido)benzoic acid]	3.9%	457 ng·h/mL	1270 ng/mL	4.98 min	36.5 mL/min/kg	168 min	1.14 L/kg	43.7 ng/mL	30 min	23 nM	93.5 ng·h/mL	104 min	0.769 µM	2.785 µM	
CC(=O)c1ccc(Cl)cc1-c1cc(=O)n([C@@H](Cc2ccccc2)C(=O)Nc2ccc(C(=O)O)cc2)nc1OC(F)F [Example 25, (S)-4-(2-(4-(2-acetyl-5-chlorophenyl)-3-(difluoromethoxy)-6-oxopyridazin-1(6H)-yl)-3-phenylpropanamido)benzoic acid]	8.6%	889 ng·h/mL	1780 ng/mL	4.98 min	22.6 mL/min/kg	48 min	0.915 L/kg	125 ng/mL	37.5 min	18.5 nM	461 ng·h/mL	158 min	1.782 µM	9.452 µM	
COc1nn(C(Cc2ccc(NC(=O)C3CC3)cc2)C(=O)Nc2ccc(C(=O)O)cc2)c(=O)cc1-c1cc(Cl)ccc1C(C)=O (stereo not shown) [Example 33, 4-(2-(4-(2-acetyl-5-chlorophenyl)-3-methoxy-6-oxopyridazin-1(6H)-yl)-3-(4-(cyclopropaneformamido)phenyl)propanamido)benzoic acid]										19.9 nM			1.527 µM	7.691 µM	
COc1nn([C@@H](Cc2ccccc2)C(=O)Nc2ccc(C(=O)O)cc2)c(=O)cc1-c1cc(Cl)ccc1C(=O)CO [Example 35, (S)-4-(2-(4-(5-chloro-2-(2-hydroxyacetyl)phenyl)-3-methoxy-6-oxopyridazin-1(6H)-yl)-3-phenylpropanamido)benzoic acid]										16.5 nM			1.271 µM	5.987 µM	

The next lines start with results.

F (Rat pharmacokinetics; ig)	AUC (Rat pharmacokinetics; iv)	Cmax (Rat pharmacokinetics; iv)	Tmax (Rat pharmacokinetics; iv)	clearance (Rat pharmacokinetics; iv)	half-life (Rat pharmacokinetics; iv)	Vd (Rat pharmacokinetics; iv)	Cmax (Rat pharmacokinetics; po, ig)	Tmax (Rat pharmacokinetics; po, ig)	IC50 (Human Factor XIa)	AUC (Rat pharmacokinetics; po, ig)	half-life (Rat pharmacokinetics; po, ig)	Structure (SMILES)	aPTT EC1.5× (human plasma)	aPTT EC2× (human plasma)	further results
									11.6 nM			COc1nn([C@@H](Cc2ccccc2)C(=O)Nc2ccc(C(=O)O)cc2)c(=O)cc1-c1cc(Cl)ccc1C(=O)C(F)F [Example 36, (S)-4-(2-(4-(5-chloro-2-(2,2-difluoroacetyl)phenyl)-3-methoxy-6-oxopyridazine-1(6H)-yl)-3-phenylpropanamido)benzoic acid]	1.348 µM	6.562 µM	
									16.4 nM			COc1nn(C(Cc2ccc(NC(=O)C3CCC3)cc2)C(=O)Nc2ccc(C(=O)O)cc2)c(=O)cc1-c1cc(Cl)ccc1C(C)=O (stereo not shown) [Example 39, 4-(2-(4-(2-acetyl-5-chlorophenyl)-3-methoxy-6-oxopyridazin-1(6H)-yl)-3-(4-(cyclobutaneformamido)phenyl)propanamido)benzoic acid]	1.638 µM	6.859 µM	
									13.9 nM			COc1nn(C(Cc2ccc(NC(=O)C3CCCC3)cc2)C(=O)Nc2ccc(C(=O)O)cc2)c(=O)cc1-c1cc(Cl)ccc1C(C)=O (stereo not shown) [Example 40, 4-(2-(4-(2-acetyl-5-chlorophenyl)-3-methoxy-6-oxopyridazin-1(6H)-yl)-3-(4-(cyclopentaneformamido)phenyl)propanamido)benzoic acid]	2.636 µM	14.94 µM	
